Test results from patent US12281149B2, “Modulators of G-protein coupled receptors” (priority 2021, dated 2025).
*1 amine or outer side, *2 acyl side, *3 side chain or, on linkers, in order; H or OH if unused. Where a SMILES comes first, the peptide text is derived from it. Side-chain parts run from the residue outwards. [ ]: non-standard residue; d: D form. The star is where a group is joined. Isobutyryl(2-(3-CN-5-F-Ph)) = CC(C)(C(=O)*)c1cc(F)cc(C#N)c1; C20 diacid = O=C(O)CCCCCCCCCCCCCCCCCCC(=O)*; X49 = O=C([C@H](CN[*:1])c1ccccc1)[*:2]; γGlu = O=C(O)[C@H](CCC(=O)[*:2])N[*:1]; X68 = CC(C)[C@@H](CN[*:1])C(=O)[*:2]; X20 = O=C(C1(c2ccc(Cl)cc2)CCOCC1)*; X36 = O=C(C1(c2ccc(Cl)cc2)CCCCC1)*; X53 = CC(C)(C(=O)*)c1cc(F)cc(F)c1; AEEA = NCCOCCOCC(=O)O; Aib = CC(C)(N)C(=O)O; βAla = NCCC(=O)O

What was measured:
Assay type in all cases: cell-based
GLP-1 receptor [1] = molecular target: T1, GLP-1 receptor (Homo sapiens, UniProt P43220); assay: HitHunter cAMP assay, GLP-1 receptor; conditions: for EC50: CHO cells stably expressing human GLP-1 receptor, cAMP accumulation, 30 min, read-out: EC50 GLP-1R; for Emax: CHO cells, cAMP, normalized to maximum signal from GLP-1 (high) and DMSO (low), read-out: Emax GLP-1R
T1 sequence (P43220 24-463): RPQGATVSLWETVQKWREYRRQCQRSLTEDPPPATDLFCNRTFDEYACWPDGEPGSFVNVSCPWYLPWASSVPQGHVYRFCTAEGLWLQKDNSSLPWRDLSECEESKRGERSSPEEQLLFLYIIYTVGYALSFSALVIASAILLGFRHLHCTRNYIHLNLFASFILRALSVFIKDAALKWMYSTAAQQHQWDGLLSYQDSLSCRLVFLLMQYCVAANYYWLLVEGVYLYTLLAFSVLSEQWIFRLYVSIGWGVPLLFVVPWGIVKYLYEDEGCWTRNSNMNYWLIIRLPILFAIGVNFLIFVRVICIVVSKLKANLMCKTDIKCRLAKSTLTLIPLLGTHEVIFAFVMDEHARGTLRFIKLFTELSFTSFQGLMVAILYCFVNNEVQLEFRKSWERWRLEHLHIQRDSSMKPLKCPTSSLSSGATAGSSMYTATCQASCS

GIP receptor [2] = molecular target: T2, GIP receptor (Homo sapiens, UniProt P48546); assay: HitHunter cAMP assay, GIP receptor; conditions: for EC50: CHO cells stably expressing GIP receptor, cAMP accumulation, 30 min, read-out: EC50 GIP-1R; for Emax: CHO cells, cAMP, normalized to maximum signal from GIP (high) and DMSO (low), read-out: Emax GIP-1R
T2 sequence (P48546 22-466): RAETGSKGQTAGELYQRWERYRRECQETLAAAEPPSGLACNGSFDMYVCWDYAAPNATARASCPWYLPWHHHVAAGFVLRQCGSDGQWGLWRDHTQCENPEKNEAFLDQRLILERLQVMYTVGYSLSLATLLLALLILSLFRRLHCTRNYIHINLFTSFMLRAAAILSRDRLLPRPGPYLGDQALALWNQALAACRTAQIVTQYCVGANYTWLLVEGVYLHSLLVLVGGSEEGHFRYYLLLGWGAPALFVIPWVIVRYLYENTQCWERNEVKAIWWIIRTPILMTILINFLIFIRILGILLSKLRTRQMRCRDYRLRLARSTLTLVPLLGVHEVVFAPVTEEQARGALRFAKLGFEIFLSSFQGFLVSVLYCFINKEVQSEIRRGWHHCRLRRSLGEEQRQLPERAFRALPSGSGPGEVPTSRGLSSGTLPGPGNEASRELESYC

GIP receptor [3] = molecular target: T2, GIP receptor; assay: PathHunter β-arrestin assay, GIP receptor; set-up: host or cells: PathHunter CHO-K1 GIPR β-Arrestin Cell Line; conditions: β-arrestin-2 recruitment, PathHunter CHO-K1 GIPR β-Arrestin Cell Line, 90 min at 37° C.; normalized to GIP; read-out: GIPR β Arrestin EC50
GLP-1 receptor [4] = molecular target: T1, GLP-1 receptor; assay: PathHunter β-arrestin assay, GLP-1 receptor; set-up: host or cells: PathHunter CHO-K1 GLP1R β-Arrestin Cell Line; conditions: β-arrestin-2 recruitment, PathHunter CHO-K1 GLP1R β-Arrestin Cell Line, 90 min at 37° C.; normalized to GLP-1; read-out: GLP-1R β Arrestin EC50

CC[C@H](C)[C@H](NC(=O)[C@H](CC(C)C)NC(=O)[C@H](Cc1c[nH]c2ccccc12)NC(=O)[C@H](CCC(N)=O)NC(=O)[C@@H](NC(=O)[C@H](Cc1ccccc1)NC(=O)[C@H](C)NC(=O)[C@H](CCCCNC(=O)COCCOCCNC(=O)COCCOCCNC(=O)CC[C@H](NC(=O)CCCCCCCCCCCCCCCCCCC(=O)O)C(=O)O)NC(=O)[C@H](CCC(N)=O)NC(=O)[C@H](C)NC(=O)[C@@H](NC(=O)[C@H](CCCCN)NC(=O)[C@H](CC(=O)O)NC(=O)[C@H](CC(C)C)NC(=O)C(C)(C)NC(=O)[C@@H](NC(=O)[C@H](CO)NC(=O)[C@H](Cc1ccc(O)cc1)NC(=O)[C@H](CC(=O)O)NC(=O)[C@H](CO)NC(=O)[C@@H](NC(=O)[C@H](Cc1ccccc1)NC(=O)[C@@H](NC(=O)CNC(=O)[C@H](CCC(=O)O)NC(=O)[C@H](CNC(=O)C(C)(C)c1cc(F)cc(C#N)c1)c1ccccc1)[C@@H](C)O)[C@@H](C)O)[C@@H](C)CC)[C@@H](C)CC)C(C)C)C(=O)N[C@@H](C)C(=O)NCC(=O)NCC(=O)N1CCC[C@H]1C(=O)N[C@@H](CO)C(=O)N[C@@H](CO)C(=O)NCC(=O)N[C@@H](C)C(=O)N1CCC[C@H]1C(=O)N1CCC[C@H]1C(=O)N1CCC[C@H]1C(=O)N[C@@H](CO)C(N)=O [Compound 170] ({Isobutyryl(2-(3-CN-5-F-Ph))}-[X49]EGTFTSDYSI[Aib]LDKIAQK([AEEA-AEEA-γGlu-C20 diacid])AFVQWLIAGGPSSGAPPPS-NH2)
EC50 (GLP-1 receptor [1]): 100 to 1000 nM
Emax (GLP-1 receptor [1]): 57%
EC50 (GIP receptor [2]): 100 to 1000 nM
Emax (GIP receptor [2]): 37%
EC50 (GIP receptor [3]): > 1000 nM
EC50 (GLP-1 receptor [4]): > 1000 nM

CC[C@H](C)[C@H](NC(=O)[C@H](CC(C)C)NC(=O)[C@H](Cc1c[nH]c2ccccc12)NC(=O)[C@H](CCC(N)=O)NC(=O)[C@@H](NC(=O)[C@H](Cc1ccccc1)NC(=O)[C@H](C)NC(=O)[C@H](CCCCNC(=O)COCCOCCNC(=O)COCCOCCNC(=O)CC[C@H](NC(=O)CCCCCCCCCCCCCCCCCCC(=O)O)C(=O)O)NC(=O)[C@H](CCC(N)=O)NC(=O)[C@H](C)NC(=O)[C@@H](NC(=O)[C@H](CCCCN)NC(=O)[C@H](CC(=O)O)NC(=O)[C@H](CC(C)C)NC(=O)C(C)(C)NC(=O)[C@@H](NC(=O)[C@H](CO)NC(=O)[C@H](Cc1ccc(O)cc1)NC(=O)[C@H](CC(=O)O)NC(=O)[C@H](CO)NC(=O)[C@@H](NC(=O)[C@H](Cc1ccccc1)NC(=O)[C@@H](NC(=O)CNC(=O)[C@H](CCC(=O)O)NC(=O)[C@H](CNC(=O)C(C)(C)c1cc(F)cc(C#N)c1)C(C)C)[C@@H](C)O)[C@@H](C)O)[C@@H](C)CC)[C@@H](C)CC)C(C)C)C(=O)N[C@@H](C)C(=O)NCC(=O)NCC(=O)N1CCC[C@H]1C(=O)N[C@@H](CO)C(=O)N[C@@H](CO)C(=O)NCC(=O)N[C@@H](C)C(=O)N1CCC[C@H]1C(=O)N1CCC[C@H]1C(=O)N1CCC[C@H]1C(=O)N[C@@H](CO)C(N)=O [Compound 171] ({Isobutyryl(2-(3-CN-5-F-Ph))}-[X68]EGTFTSDYSI[Aib]LDKIAQK([AEEA-AEEA-γGlu-C20 diacid])AFVQWLIAGGPSSGAPPPS-NH2)
EC50 (GLP-1 receptor [1]): 10 to 100 nM
Emax (GLP-1 receptor [1]): 109%
EC50 (GIP receptor [2]): 100 to 1000 nM
Emax (GIP receptor [2]): 94%
EC50 (GIP receptor [3]): > 1000 nM
EC50 (GLP-1 receptor [4]): > 1000 nM

CC[C@H](C)[C@H](NC(=O)[C@H](CC(C)C)NC(=O)[C@H](Cc1c[nH]c2ccccc12)NC(=O)[C@H](CCC(N)=O)NC(=O)[C@@H](NC(=O)[C@H](Cc1ccccc1)NC(=O)[C@H](C)NC(=O)[C@H](CCCCNC(=O)COCCOCCNC(=O)COCCOCCNC(=O)CC[C@H](NC(=O)CCCCCCCCCCCCCCCCCCC(=O)O)C(=O)O)NC(=O)[C@H](CCC(N)=O)NC(=O)[C@H](C)NC(=O)[C@@H](NC(=O)[C@H](CCCCN)NC(=O)[C@H](CC(=O)O)NC(=O)[C@H](CC(C)C)NC(=O)C(C)(C)NC(=O)[C@@H](NC(=O)[C@H](CO)NC(=O)[C@H](Cc1ccc(O)cc1)NC(=O)[C@H](CC(=O)O)NC(=O)[C@H](CO)NC(=O)[C@@H](NC(=O)[C@H](Cc1ccccc1)NC(=O)[C@@H](NC(=O)CNC(=O)[C@H](CCC(=O)O)NC(=O)CCNC(=O)C1(c2ccc(Cl)cc2)CCOCC1)[C@@H](C)O)[C@@H](C)O)[C@@H](C)CC)[C@@H](C)CC)C(C)C)C(=O)N[C@@H](C)C(=O)NCC(=O)NCC(=O)N1CCC[C@H]1C(=O)N[C@@H](CO)C(=O)N[C@@H](CO)C(=O)NCC(=O)N[C@@H](C)C(=O)N1CCC[C@H]1C(=O)N1CCC[C@H]1C(=O)N1CCC[C@H]1C(=O)N[C@@H](CO)C(N)=O [Compound 172] ({X20-βAla}-EGTFTSDYSI[Aib]LDKIAQK([AEEA-AEEA-γGlu-C20 diacid])AFVQWLIAGGPSSGAPPPS-NH2)
EC50 (GLP-1 receptor [1]): 1 to 10 nM
Emax (GLP-1 receptor [1]): 89%
EC50 (GIP receptor [2]): 1 to 10 nM
Emax (GIP receptor [2]): 109%
EC50 (GIP receptor [3]): > 1000 nM
EC50 (GLP-1 receptor [4]): > 1000 nM

CC[C@H](C)[C@H](NC(=O)[C@H](CC(C)C)NC(=O)[C@H](Cc1c[nH]c2ccccc12)NC(=O)[C@H](CCC(N)=O)NC(=O)[C@@H](NC(=O)[C@H](Cc1ccccc1)NC(=O)[C@H](C)NC(=O)[C@H](CCCCNC(=O)COCCOCCNC(=O)COCCOCCNC(=O)CC[C@H](NC(=O)CCCCCCCCCCCCCCCCCCC(=O)O)C(=O)O)NC(=O)[C@H](CCC(N)=O)NC(=O)[C@H](C)NC(=O)[C@@H](NC(=O)[C@H](CCCCN)NC(=O)[C@H](CC(=O)O)NC(=O)[C@H](CC(C)C)NC(=O)C(C)(C)NC(=O)[C@@H](NC(=O)[C@H](CO)NC(=O)[C@H](Cc1ccc(O)cc1)NC(=O)[C@H](CC(=O)O)NC(=O)[C@H](CO)NC(=O)[C@@H](NC(=O)[C@H](Cc1ccccc1)NC(=O)[C@@H](NC(=O)CNC(=O)[C@H](CCC(=O)O)NC(=O)CCNC(=O)C(C)(C)c1cc(F)cc(F)c1)[C@@H](C)O)[C@@H](C)O)[C@@H](C)CC)[C@@H](C)CC)C(C)C)C(=O)N[C@@H](C)C(=O)NCC(=O)NCC(=O)N1CCC[C@H]1C(=O)N[C@@H](CO)C(=O)N[C@@H](CO)C(=O)NCC(=O)N[C@@H](C)C(=O)N1CCC[C@H]1C(=O)N1CCC[C@H]1C(=O)N1CCC[C@H]1C(=O)N[C@@H](CO)C(N)=O [Compound 173] ({X53-βAla}-EGTFTSDYSI[Aib]LDKIAQK([AEEA-AEEA-γGlu-C20 diacid])AFVQWLIAGGPSSGAPPPS-NH2)
EC50 (GLP-1 receptor [1]): < 0.1 nM
Emax (GLP-1 receptor [1]): 98%
EC50 (GIP receptor [2]): 1 to 10 nM
Emax (GIP receptor [2]): 103%
EC50 (GIP receptor [3]): > 1000 nM
EC50 (GLP-1 receptor [4]): > 1000 nM

CC[C@H](C)[C@H](NC(=O)[C@H](CC(C)C)NC(=O)[C@H](Cc1c[nH]c2ccccc12)NC(=O)[C@H](CCC(N)=O)NC(=O)[C@@H](NC(=O)[C@H](Cc1ccccc1)NC(=O)[C@H](C)NC(=O)[C@H](CCCCNC(=O)COCCOCCNC(=O)COCCOCCNC(=O)CC[C@H](NC(=O)CCCCCCCCCCCCCCCCCCC(=O)O)C(=O)O)NC(=O)[C@H](CCC(N)=O)NC(=O)[C@H](C)NC(=O)[C@@H](NC(=O)[C@H](CCCCN)NC(=O)[C@H](CC(=O)O)NC(=O)[C@H](CC(C)C)NC(=O)C(C)(C)NC(=O)[C@@H](NC(=O)[C@H](CO)NC(=O)[C@H](Cc1ccc(O)cc1)NC(=O)[C@H](CC(=O)O)NC(=O)[C@H](CO)NC(=O)[C@@H](NC(=O)[C@H](Cc1ccccc1)NC(=O)[C@@H](NC(=O)CNC(=O)[C@H](CCC(=O)O)NC(=O)CCNC(=O)C1(c2ccc(Cl)cc2)CCCCC1)[C@@H](C)O)[C@@H](C)O)[C@@H](C)CC)[C@@H](C)CC)C(C)C)C(=O)N[C@@H](C)C(=O)NCC(=O)NCC(=O)N1CCC[C@H]1C(=O)N[C@@H](CO)C(=O)N[C@@H](CO)C(=O)NCC(=O)N[C@@H](C)C(=O)N1CCC[C@H]1C(=O)N1CCC[C@H]1C(=O)N1CCC[C@H]1C(=O)N[C@@H](CO)C(N)=O [Compound 174] ({X36-βAla}-EGTFTSDYSI[Aib]LDKIAQK([AEEA-AEEA-γGlu-C20 diacid])AFVQWLIAGGPSSGAPPPS-NH2)
EC50 (GLP-1 receptor [1]): 10 to 100 nM
Emax (GLP-1 receptor [1]): 93%
EC50 (GIP receptor [2]): 10 to 100 nM
Emax (GIP receptor [2]): 104%
EC50 (GIP receptor [3]): > 1000 nM
EC50 (GLP-1 receptor [4]): > 1000 nM
